Reference: patent US20080031811A1, “Method For Preparing Radioactive Film” (DONG WHA PHARM. IND. CO., LTD., priority 2004, published 2008)

Experiment: Thermal characteristic of film (TGA)
Format: physicochemical
Details: measured at 500° C.
Procedure: The behavior of thermal change according to temperature change in holmium nitrate, polyurethane film, and holmium-165 polyurethane film (Example 13) is measured by using a thermogravimetric analyzer (TGA, […], Germany) and a differential scanning calorimetry (DSC, […], Germany). TGA analyzes the changes in the mass of a substance according to temperature by a thermal decomposition curve. The analysis conditions of TGA are as follows; 30˜600° C. of temperature, 5.0 mg of a substance, 10° C./min of heating rate. Calorie change of a substance according to temperature change is measured by DSC. DSC is measured at the same condition as TGA and the sample is sealed in an aluminum pan under nitrogen atmosphere.

O=[N+]([O-])[O-].O=[N+]([O-])[O-].O=[N+]([O-])[O-].[Ho+3] [holmium nitrate, ^165Ho(No3)3.5H2O]
Residual weight % after decomposition: 37%
